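Exposure lasted 48 hours, with cells grown in 96-well plates and compounds tested at five concentrations. GI50: concentration for 50% inhibition of growth. TGI denotes the concentration required for complete inhibition of growth.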
Legend:
Test in all cases: DTP human tumour cell line panel, 48 h
786-0 renal = tested on: 786-0 renal
A498 renal = tested on: A498 renal
A549 NSCLC = tested on: A549 NSCLC
ACHN renal = tested on: ACHN renal
CAKI-1 renal = tested on: CAKI-1 renal
CCRF-CEM leukemia = tested on: CCRF-CEM leukemia
COLO 205 colon = tested on: COLO 205 colon
DLD-1 colon = tested on: DLD-1 colon
DMS 273 small cell lung = tested on: DMS 273 small cell lung
HCC-2998 colon = tested on: HCC-2998 colon
HCT-116 colon = tested on: HCT-116 colon
HCT-15 colon = tested on: HCT-15 colon
HL-60(TB) leukemia = tested on: HL-60(TB) leukemia
HOP-18 NSCLC = tested on: HOP-18 NSCLC
HOP-62 NSCLC = tested on: HOP-62 NSCLC
HOP-92 NSCLC = tested on: HOP-92 NSCLC
HT29 colon = tested on: HT29 colon
IGROV1 ovarian = tested on: IGROV1 ovarian
K-562 leukemia = tested on: K-562 leukemia
KM12 colon = tested on: KM12 colon
KM20L2 colon = tested on: KM20L2 colon
LOX IMVI melanoma = tested on: LOX IMVI melanoma
LXFL 529 NSCLC = tested on: LXFL 529 NSCLC
M14 melanoma = tested on: M14 melanoma
M19-MEL melanoma = tested on: M19-MEL melanoma
MALME-3M melanoma = tested on: MALME-3M melanoma
MOLT-4 leukemia = tested on: MOLT-4 leukemia
NCI-H226 lung = tested on: NCI-H226 lung
NCI-H460 lung = tested on: NCI-H460 lung
OVCAR-3 ovarian = tested on: OVCAR-3 ovarian
OVCAR-4 ovarian = tested on: OVCAR-4 ovarian
OVCAR-8 ovarian = tested on: OVCAR-8 ovarian
RPMI-8226 leukemia = tested on: RPMI-8226 leukemia
SF-268 CNS = tested on: SF-268 CNS
SF-295 CNS = tested on: SF-295 CNS
SF-539 CNS = tested on: SF-539 CNS
SK-MEL-2 melanoma = tested on: SK-MEL-2 melanoma
SK-MEL-28 melanoma = tested on: SK-MEL-28 melanoma
SK-MEL-5 melanoma = tested on: SK-MEL-5 melanoma
SK-OV-3 ovarian = tested on: SK-OV-3 ovarian
SN12C renal = tested on: SN12C renal
SNB-19 CNS = tested on: SNB-19 CNS
SNB-75 CNS = tested on: SNB-75 CNS
SNB-78 CNS = tested on: SNB-78 CNS
SW-620 colon = tested on: SW-620 colon
TK-10 renal = tested on: TK-10 renal
U251 CNS = tested on: U251 CNS
UACC-257 melanoma = tested on: UACC-257 melanoma
UACC-62 melanoma = tested on: UACC-62 melanoma
UO-31 renal = tested on: UO-31 renal
XF 498 CNS = tested on: XF 498 CNS

With N[C@@H]1CCCC[C@@H]1N.O=P([O-])([O-])CN(CP(=O)([O-])[O-])CP(=O)([O-])[O-].[Pt+2] the GI50 (786-0 renal) was > 100 µM, the TGI (786-0 renal) was > 100 µM and the GI50 (A498 renal) was > 100 µM. For the same compound, the TGI (A498 renal) was > 100 µM, the GI50 (A549 NSCLC) was > 100 µM and the TGI (A549 NSCLC) was > 100 µM. For the same compound, the GI50 (ACHN renal) was > 100 µM, the TGI (ACHN renal) was > 100 µM and the GI50 (CAKI-1 renal) was > 100 µM. The TGI (CAKI-1 renal) was > 100 µM, the GI50 (CCRF-CEM leukemia) was > 100 µM and the TGI (CCRF-CEM leukemia) was > 100 µM. For the same compound, the GI50 (COLO 205 colon) was > 100 µM, the TGI (COLO 205 colon) was > 100 µM and the GI50 (DLD-1 colon) was > 100 µM. For the same compound, the TGI (DLD-1 colon) was > 100 µM, the GI50 (DMS 273 small cell lung) was > 100 µM and the TGI (DMS 273 small cell lung) was > 100 µM. The GI50 (HCC-2998 colon) was > 100 µM, the TGI (HCC-2998 colon) was > 100 µM and the GI50 (HCT-116 colon) was > 100 µM. The TGI (HCT-116 colon) was > 100 µM, the GI50 (HCT-15 colon) was > 100 µM and the TGI (HCT-15 colon) was > 100 µM. For the same compound, the GI50 (HL-60(TB) leukemia) was > 100 µM, the TGI (HL-60(TB) leukemia) was > 100 µM and the GI50 (HOP-18 NSCLC) was > 100 µM. The TGI (HOP-18 NSCLC) was > 100 µM, the GI50 (HOP-62 NSCLC) was > 100 µM and the TGI (HOP-62 NSCLC) was > 100 µM. For the same compound, the GI50 (HOP-92 NSCLC) was > 100 µM, the TGI (HOP-92 NSCLC) was > 100 µM and the GI50 (HT29 colon) was > 100 µM. The TGI (HT29 colon) was > 100 µM, the GI50 (IGROV1 ovarian) was > 100 µM and the TGI (IGROV1 ovarian) was > 100 µM. For the same compound, the GI50 (K-562 leukemia) was > 100 µM, the TGI (K-562 leukemia) was > 100 µM and the GI50 (KM12 colon) was > 100 µM. For the same compound, the TGI (KM12 colon) was > 100 µM, the GI50 (KM20L2 colon) was > 100 µM and the TGI (KM20L2 colon) was > 100 µM. For the same compound, the GI50 (LOX IMVI melanoma) was > 100 µM, the TGI (LOX IMVI melanoma) was > 100 µM and the GI50 (LXFL 529 NSCLC) was > 100 µM. The TGI (LXFL 529 NSCLC) was > 100 µM, the GI50 (M14 melanoma) was > 100 µM and the TGI (M14 melanoma) was > 100 µM. For the same compound, the GI50 (M19-MEL melanoma) was > 100 µM, the TGI (M19-MEL melanoma) was > 100 µM and the GI50 (MALME-3M melanoma) was > 100 µM. The TGI (MALME-3M melanoma) was > 100 µM, the GI50 (MOLT-4 leukemia) was > 100 µM and the TGI (MOLT-4 leukemia) was > 100 µM. The GI50 (NCI-H226 lung) was > 100 µM, the TGI (NCI-H226 lung) was > 100 µM and the GI50 (NCI-H460 lung) was > 100 µM. The TGI (NCI-H460 lung) was > 100 µM, the GI50 (OVCAR-3 ovarian) was > 100 µM and the TGI (OVCAR-3 ovarian) was > 100 µM. For the same compound, the GI50 (OVCAR-4 ovarian) was > 100 µM, the TGI (OVCAR-4 ovarian) was > 100 µM and the GI50 (OVCAR-8 ovarian) was > 100 µM. For the same compound, the TGI (OVCAR-8 ovarian) was > 100 µM, the GI50 (RPMI-8226 leukemia) was > 100 µM and the TGI (RPMI-8226 leukemia) was > 100 µM. The GI50 (SF-268 CNS) was > 100 µM, the TGI (SF-268 CNS) was > 100 µM and the GI50 (SF-295 CNS) was > 100 µM. For the same compound, the TGI (SF-295 CNS) was > 100 µM, the GI50 (SF-539 CNS) was > 100 µM and the TGI (SF-539 CNS) was > 100 µM. The GI50 (SK-MEL-2 melanoma) was > 100 µM, the TGI (SK-MEL-2 melanoma) was > 100 µM and the GI50 (SK-MEL-28 melanoma) was > 100 µM. The TGI (SK-MEL-28 melanoma) was > 100 µM, the GI50 (SK-MEL-5 melanoma) was > 100 µM and the TGI (SK-MEL-5 melanoma) was > 100 µM. For the same compound, the GI50 (SK-OV-3 ovarian) was > 100 µM, the TGI (SK-OV-3 ovarian) was > 100 µM and the GI50 (SN12C renal) was > 100 µM. The TGI (SN12C renal) was > 100 µM, the GI50 (SNB-19 CNS) was > 100 µM and the TGI (SNB-19 CNS) was > 100 µM. For the same compound, the GI50 (SNB-75 CNS) was > 100 µM, the TGI (SNB-75 CNS) was > 100 µM and the GI50 (SNB-78 CNS) was > 100 µM. The TGI (SNB-78 CNS) was > 100 µM, the GI50 (SW-620 colon) was > 100 µM and the TGI (SW-620 colon) was > 100 µM. The GI50 (TK-10 renal) was > 100 µM, the TGI (TK-10 renal) was > 100 µM and the GI50 (U251 CNS) was > 100 µM. The TGI (U251 CNS) was > 100 µM, the GI50 (UACC-257 melanoma) was > 100 µM and the TGI (UACC-257 melanoma) was > 100 µM. The GI50 (UACC-62 melanoma) was > 100 µM, the TGI (UACC-62 melanoma) was > 100 µM and the GI50 (UO-31 renal) was > 100 µM. For the same compound, the TGI (UO-31 renal) was > 100 µM, the GI50 (XF 498 CNS) was > 100 µM and the TGI (XF 498 CNS) was > 100 µM.
